Laboratory results reported in PubChem BioAssay (NCI).
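Step 1: Grow cells in 96-well plates. Step 2: Expose to compound for 48 hours at 5 concentrations. Step 3: Interpolate endpoints linearly; if unreached, use highest concentration. TGI marks complete inhibition of growth.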

Experiments:
Assay in all cases: inhibition of tumour cell growth, NCI panel, 48 h
KM12 colon = tested on: KM12 colon
ACHN renal = tested on: ACHN renal
SK-MEL-5 melanoma = tested on: SK-MEL-5 melanoma
OVCAR-5 ovarian = tested on: OVCAR-5 ovarian
SK-MEL-28 melanoma = tested on: SK-MEL-28 melanoma
HCC-2998 colon = tested on: HCC-2998 colon
COLO 205 colon = tested on: COLO 205 colon
SF-295 CNS = tested on: SF-295 CNS
SF-539 CNS = tested on: SF-539 CNS
UO-31 renal = tested on: UO-31 renal
SK-MEL-2 melanoma = tested on: SK-MEL-2 melanoma
NCI-H522 lung = tested on: NCI-H522 lung
CAKI-1 renal = tested on: CAKI-1 renal
RPMI-8226 leukemia = tested on: RPMI-8226 leukemia
SNB-19 CNS = tested on: SNB-19 CNS
RXF 393 renal = tested on: RXF 393 renal
MDA-MB-231 breast = tested on: MDA-MB-231 breast
PC-3 prostate = tested on: PC-3 prostate
DU-145 prostate = tested on: DU-145 prostate

Row | Compound | TGI (KM12 colon) [µM] | TGI (ACHN renal) [µM] | TGI (SK-MEL-5 melanoma) [µM] | TGI (OVCAR-5 ovarian) [µM] | TGI (SK-MEL-28 melanoma) [µM] | TGI (HCC-2998 colon) [µM] | TGI (COLO 205 colon) [µM] | TGI (SF-295 CNS) [µM] | TGI (SF-539 CNS) [µM] | TGI (UO-31 renal) [µM] | TGI (SK-MEL-2 melanoma) [µM] | TGI (NCI-H522 lung) [µM] | TGI (CAKI-1 renal) [µM] | TGI (RPMI-8226 leukemia) [µM] | TGI (SNB-19 CNS) [µM] | TGI (RXF 393 renal) [µM] | TGI (MDA-MB-231 breast) [µM] | TGI (PC-3 prostate) [µM] | TGI (DU-145 prostate) [µM]
1 | CC1SC2=NC3=C(c4ccccc4C3=O)C(c3ccccc3Cl)N2C1=O (stereo not drawn) | > 100 | > 100 | > 100 | > 100 | > 100 | > 100 | > 100 | > 100 | > 100 | > 100 | > 100 | 96.3 | > 100 | > 100 | > 100 |  |  |  | 
2 | CN/N=C(\C(=O)Nc1ccc(C(F)(F)F)cc1[N+](=O)[O-])C(c1cnc2ccc([N+](=O)[O-])cc2n1)[N+](=O)[O-] (stereo not drawn) | > 100 | > 100 | > 100 | 79.5 | > 100 | 84.8 | > 100 | > 100 | > 100 | > 100 | > 100 | 66.3 | > 100 | > 100 | > 100 | > 100 |  |  | 
3 | NNC(=O)CC(=O)Nc1ccc(S(=O)(=O)c2ccc(NC(=O)CC(=O)NN)cc2)cc1 | > 100 | > 100 | > 100 | > 100 | > 100 | > 100 | > 100 | > 100 | > 100 | > 100 | > 100 | > 100 | > 100 | > 100 | > 100 | > 100 | > 100 | > 100 | > 100
4 | CCCCCCCC(=O)OC[C@H](C[As](=O)(O)O)OC(=O)CCCCCCC |  | 23.1 | 26.8 |  | 26.5 | 27.8 | 30 | 27.5 | 18.2 | 16.5 |  | 4.07 |  | 32.4 | 27.3 | 16 |  |  | 
5 | CSc1nc(NC2OCC(OC(C)=O)C(OC(C)=O)C2OC(C)=O)c2c(n1)OCC2=O (stereo not drawn) | > 100 | > 100 | > 100 | > 100 | > 100 | > 100 | > 100 | > 100 | > 100 | > 100 | > 100 | > 100 | > 100 | > 100 | > 100 | > 100 |  |  | 
6 | Oc1ccc(C2Oc3cc(O)cc4c3C2c2cc(O)cc3c2C(c2cc(O)cc5c2C4C(c2ccc(O)cc2)O5)C(c2ccc(O)cc2)O3)cc1 (stereo not drawn) | > 25 | > 25 | > 25 | > 25 | 16.9 | > 25 | > 25 |  | 22.8 | > 25 | 12.3 | > 25 | > 25 | 24.3 | > 25 |  |  |  | 
7 | Cc1oc2nc(N(C)C)nc(NN)c2c1C | > 100 | > 100 | > 100 | > 100 | > 100 | > 100 | > 100 | > 100 | > 100 | > 100 | > 100 | > 100 | > 100 | > 100 | > 100 | > 100 | > 100 | > 100 | > 100
8 | CC(C)(CCl)NC(=O)c1cccc(C(=O)NC(C)(C)CCl)n1 | > 100 | > 100 | > 100 | > 100 | > 100 | > 100 | > 100 | > 100 | > 100 | > 100 | > 100 | > 100 | > 100 | > 100 | > 100 | > 100 |  |  | 
9 | N#Cc1sc2c(c1OC(=O)c1ccc(Cl)cc1Cl)c(=O)n(-c1ccccc1)c(=S)n2-c1ccccc1 | 89.7 | > 100 | 34.6 | > 100 | > 100 | > 100 | 42.2 | 81.2 | 39.2 | 0.424 |  | 7.3 | 54.5 | 60 | 60.6 | 42 | 75.1 | > 100 | > 100
10 | O=C(O[C@H]1[C@@H]2C=CO[C@@H](OC3OC(CO)C(O)C(O)C3O)[C@@H]2[C@@]2(CO)O[C@@H]12)c1ccc(O)c(O)c1 (stereo partly drawn) | > 100 | > 100 | > 100 | > 100 | > 100 | > 100 | > 100 | > 100 | > 100 | > 100 | > 100 | > 100 | > 100 | > 100 | > 100 | > 100 |  |  | 
11 | CN1N=C2c3ccccc3OC(c3ccccc3)[C@H]2C1c1ccccc1 (stereo partly drawn) | > 100 | > 100 |  | > 100 | > 100 | > 100 | > 100 | > 100 | > 100 | > 100 | > 100 | > 100 |  | > 100 | > 100 | 88.5 |  |  | 
12 | O=c1c(C(c2ccc([N+](=O)[O-])cc2)c2c(O)c3ccccc3n(-c3ccccc3)c2=O)c(O)c2ccccc2n1-c1ccccc1 | 82.5 | 72 | 38 | > 100 | 66.5 | 29.1 | 63.4 | 33.3 | 28 | 21.3 | 31 | 86.6 | > 100 | 57.1 | > 100 | 40.1 |  |  | 
13 | CN/N=C(\C)C(CN1CCCCC1)C(C1=C(O)c2ccccc2OC1)c1ccccc1 (stereo not drawn) | > 100 | > 100 | > 100 | > 100 | > 100 | > 100 | > 100 | > 100 | > 100 | > 100 | > 100 | > 100 | > 100 | > 100 | > 100 | > 100 |  |  | 
14 | O=c1[nH]nc(CNc2ccc(Cl)cc2Cl)c2ccccc12 | > 100 | 46.2 | 50.6 | > 100 | 52.4 | 44.5 | > 100 | 44.7 | 41 | 33.7 | > 100 | 41.7 | 51.7 | > 100 | 60.7 | 34.9 |  |  | 
